In patent US10850134B2, “Method and kit for home controlled ovarian stimulation for in vitro fertilization” (priority 2019, dated 2020):
“And” between values parts separate entries of the source, which are not always exact repeats. Identical values can stand only once.

What was measured:
[1] = system: Luteinizing hormone (LH) blood level; test: LH blood level in patients on GnRH antagonist protocol with ganirelix acetate injections (Example 1); assay type: in vivo, female patients
Method: Five female patients were treated with a GnRH antagonist protocol requiring injections of medications.
One patient, patient no. 1, was injected with 150 Units of FSH on days 3 to 12; half a syringe of 150 mcg/0.5 mL of ganirelix acetate on days 11 and 12; and 50 mg of clomiphene citrate on days 3 to 12; and 2.5 mg of letrozole on days 3 to 7. Luteinizing hormone (LH) blood level was 4.3 mIU/mL on day 10 and dropped to 2 mIU/mL on day 12.
A second patient, patient no. 2, was injected with 75 Units of FSH on days 4 to 12 and 150 Units on day 13; half a syringe of 150 mcg/0.5 mL of ganirelix acetate on days 11 to 13; 50 mg of clomiphene citrate on days 10 to 12, and 2.5 mg of letrozole on days 3 to 7. Luteinizing hormone (LH) blood level was 12.0 mIU/mL on day 11 and dropped to 6.3 mIU/mL on day 13.
Three patients, numbered 3 to 5, were injected with 75, 150 and 225 Units of FSH, respectively, on days 4 to 12 and one third a syringe of 150 mcg/0.5 mL of ganirelix acetate on days 11 to 13. Patient no. 3 received 50 mg of clomiphene citrate on days 4 to 12, and 2.5 mg of letrozole on days 4 to 8. Patient no. 4 received 100 mg of clomiphene citrate and 2.5 mg of letrozole on days 4 to 8, and 50 mg of clomiphene citrate on days 9 to 11. Patient no. 5 received no clomiphene citrate or letrozole. Luteinizing hormone (LH) blood level was 12.0, 18.0 and 14.6 mIU/mL, respectively, on day 10 and dropped to 4.9, 16.0 and 14.1 mIU/mL, respectively, on day 12.
(§1) Table 2 below provides a comparison of the efficacy of conventional Ganirelex/Cetrotide injectables treatment for IVF in the five representative patients from Example 1 with the home controlled ovarian hyperstimulation method described herein in the five representative patients from Example 2.

[2] = system: Luteinizing hormone (LH) blood level; test: LH blood level in patients on home controlled ovarian hyperstimulation method with vaginal elagolix (Example 2); assay type: in vivo, female patients; details: for Luteinizing hormone (LH) blood level: 50 mg elagolix vaginal suppository days 9 and 11
Method: Five female patients were treated with the controlled ovarian hyperstimulation method described herein using the elagolix pill (vaginal route) instead of the conventional Ganirelex/Cetrotide injectables. On day 3 of the patient's menstrual cycle, the patient orally took 100 mg (two 50 mg oral tablets) of clomiphene citrate and 5 mg (two 2.5 mg oral tablets) of letrozole. The patient then took the same oral dosages of clomiphene citrate and letrozole daily on each of days 4-7 of the patient's menstrual cycle. On day 8 of the patient's menstrual cycle, the patient orally took only 100 mg (two 50 mg oral tablets) of clomiphene citrate, and stopped the letrozole. On day 9 of the menstrual cycle, the patient orally took 100 mg (two 50 mg oral tablets) of clomiphene citrate and inserted vaginally a 50 mg tablet of elagolix as a vaginal suppository. On day 10 of the menstrual cycle, the patient orally took only 100 mg (two 50 mg oral tablets) of clomiphene citrate. On day 11 of the menstrual cycle, the patient orally took 100 mg (two 50 mg oral tablets) of clomiphene citrate and inserted vaginally a 50 mg tablet of elagolix as a vaginal suppository. Also, on day 11, the patient took a home ovulation test in the morning (9:00 am) and in the evening (9:00 pm). For the patients whose ovulation tests were not positive, then on days 12 and 13, the patient took 2 doses of leuprorelin as a nasal spray (1:40 dilution in saline) as follows. On day 12, after taking a home ovulation test at 9:00 am, 2 puffs (sprays) of the nasal spray were self-administered by the patient per nostril. After 12 hours of waiting, at 9:00 pm the patient took a home urine ovulation test and then self-administered 2 more puffs (sprays) of the nasal spray per nostril. On day 13, the patient repeated the procedure of day 12. Luteinizing hormone (LH) blood level was 7.0 mIU/mL on day 11 and dropped to 1.0 mIU/mL on day 13.
as §1

[3] = Example 1, conventional injectables, individual patients 1-5, blood
[4] = Example 2, vaginal elagolix suppository 50 mg days 9 and 11, individual patients 1-5, blood

## ganirelix acetate
[1]; Example 1, conventional injectables, individual patients 1-5
  % Drop in blood LH hormone level: 53.5% and 47.5% and 59.2% and 11.1% and 3.4%
[1]; [3]
  LH blood hormone level (mIU/mL) AFTER medication intake: 2.0 mIU/mL and 6.3 mIU/mL and 4.9 mIU/mL and 16.0 mIU/mL and 14.1 mIU/mL
  LH blood hormone level (mIU/mL) BEFORE medication intake: 4.3 mIU/mL and 12.0 mIU/mL (2×) and 18.0 mIU/mL and 14.6 mIU/mL
[1]; patient no. 1, day 10, half a syringe ganirelix acetate days 11 and 12, 150 Units FSH
  Luteinizing hormone (LH) blood level: 4.3 mIU/mL
[1]; patient no. 1, day 10 to day 12
  drop in LH blood hormone levels: 53.5%
[1]; patient no. 1, day 12, half a syringe ganirelix acetate days 11 and 12, 150 Units FSH
  Luteinizing hormone (LH) blood level: 2 mIU/mL
[1]; patient no. 2, day 11, half a syringe ganirelix acetate days 11 to 13, 75 Units FSH
  Luteinizing hormone (LH) blood level: 12.0 mIU/mL
[1]; patient no. 2, day 11 to day 13
  drop in LH blood hormone levels: 47.5%
[1]; patient no. 2, day 13, half a syringe ganirelix acetate days 11 to 13, 75 Units FSH
  Luteinizing hormone (LH) blood level: 6.3 mIU/mL
[1]; patient no. 3, day 10, one third a syringe ganirelix acetate days 11 to 13, 75 Units FSH
  Luteinizing hormone (LH) blood level: 12.0 mIU/mL
[1]; patient no. 3, day 10 to day 12
  drop in LH blood hormone levels: 59.25
[1]; patient no. 3, day 12, one third a syringe ganirelix acetate days 11 to 13, 75 Units FSH
  Luteinizing hormone (LH) blood level: 4.9 mIU/mL
[1]; patient no. 4, day 10, one third a syringe ganirelix acetate days 11 to 13, 150 Units FSH
  Luteinizing hormone (LH) blood level: 18.0 mIU/mL
[1]; patient no. 4, day 10 to day 12
  drop in LH blood hormone levels: 11.1%
[1]; patient no. 4, day 12, one third a syringe ganirelix acetate days 11 to 13, 150 Units FSH
  Luteinizing hormone (LH) blood level: 16.0 mIU/mL
[1]; patient no. 5, day 10, one third a syringe ganirelix acetate days 11 to 13, 225 Units FSH, no clomiphene citrate or letrozole
  Luteinizing hormone (LH) blood level: 14.6 mIU/mL
[1]; patient no. 5, day 10 to day 12
  drop in LH blood hormone levels: 3.4%
[1]; patient no. 5, day 12, one third a syringe ganirelix acetate days 11 to 13, 225 Units FSH, no clomiphene citrate or letrozole
  Luteinizing hormone (LH) blood level: 14.1 mIU/mL

## COc1cccc(-c2c(C)n(Cc3c(F)cccc3C(F)(F)F)c(=O)n(C[C@H](NCCCC(=O)O)c3ccccc3)c2=O)c1F [Vaginal elagolix suppository, elagolix]
[2]; Example 2, vaginal elagolix suppository 50 mg days 9 and 11, individual patients 1-5
  % Drop in blood LH hormone level: 85.7% and 65.9% and 68.6% and 79.3% and 88.6%
[2]; [4]
  LH blood hormone level (mIU/mL) AFTER medication intake: 1.0 mIU/mL and 5.7 mIU/mL and 3.2 mIU/mL and 1.7 mIU/mL and 0.8 mIU/mL
  LH blood hormone level (mIU/mL) BEFORE medication intake: 7.0 mIU/mL and 16.7 mIU/mL and 10.2 mIU/mL and 8.2 mIU/mL and 7 mIU/mL
[2]; day 11
  Luteinizing hormone (LH) blood level: 7.0 mIU/mL
[2]; day 11 to day 13
  drop in LH blood hormone levels: 85.7%
[2]; day 13
  Luteinizing hormone (LH) blood level: 1.0 mIU/mL
